According to patent US20070149535A1, “Protein kinase inhibitors” (ONCALIS AG, priority 2004, published 2007):

Key:
Assay in all cases: Yeast growth assay, specificity profiling
Type in all cases: cell-based
Set-up in all cases: key: “−” indicates no growth restoration i.e. no activity against the particular kinase; “+”, “++”, and “+++” indicate activity detected by restoration of growth, classified into three categories of potency; “+”, “++”, and “+++” indicate activity detected by restoration of growth, classified into three categories of potency; “+”, “++”, and “+++” indicate activity detected by restoration of growth, classified into three categories of potency
Details in all cases: 7 concentrations between 0.2 and 100 μM
EphB4 = molecular target: T1, EphB4 (Homo sapiens, UniProt P54760)
T1 construct: expressed in transfected cells; host or cells: yeast
T1 sequence (P54760 16-987): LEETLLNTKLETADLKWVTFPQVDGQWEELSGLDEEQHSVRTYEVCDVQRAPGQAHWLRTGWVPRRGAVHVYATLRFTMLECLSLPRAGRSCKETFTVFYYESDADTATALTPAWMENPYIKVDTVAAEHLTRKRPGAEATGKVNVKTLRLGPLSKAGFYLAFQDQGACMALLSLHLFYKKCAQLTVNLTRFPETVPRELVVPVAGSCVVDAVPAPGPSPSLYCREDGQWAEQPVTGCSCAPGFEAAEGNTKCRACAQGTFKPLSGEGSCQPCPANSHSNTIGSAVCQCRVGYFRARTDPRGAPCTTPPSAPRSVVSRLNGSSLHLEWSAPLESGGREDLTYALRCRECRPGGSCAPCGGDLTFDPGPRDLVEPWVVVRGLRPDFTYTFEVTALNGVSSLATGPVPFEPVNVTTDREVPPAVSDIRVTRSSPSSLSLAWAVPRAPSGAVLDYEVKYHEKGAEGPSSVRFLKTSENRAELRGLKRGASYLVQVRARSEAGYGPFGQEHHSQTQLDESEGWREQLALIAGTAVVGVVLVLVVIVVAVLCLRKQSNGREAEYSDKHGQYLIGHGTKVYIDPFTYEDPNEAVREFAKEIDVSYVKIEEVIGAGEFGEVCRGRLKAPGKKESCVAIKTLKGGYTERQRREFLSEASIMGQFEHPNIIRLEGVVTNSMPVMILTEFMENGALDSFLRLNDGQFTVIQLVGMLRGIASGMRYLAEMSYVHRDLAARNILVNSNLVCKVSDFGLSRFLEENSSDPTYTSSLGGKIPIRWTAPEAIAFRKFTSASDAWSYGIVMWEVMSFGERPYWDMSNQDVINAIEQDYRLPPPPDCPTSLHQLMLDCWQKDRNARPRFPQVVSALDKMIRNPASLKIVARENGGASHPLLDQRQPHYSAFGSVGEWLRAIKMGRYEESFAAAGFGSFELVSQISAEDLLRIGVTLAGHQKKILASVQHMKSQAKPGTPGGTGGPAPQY
Experimental: (§1) Specificity Profiling: Yeast Growth Assay
(§2) The yeast growth assay was performed as described in “Method for the identification and/or validation of receptor tyrosine kinase inhibitors” PCT/CH03/00694 (2004/10/24), section “Modes for Carrying out the Invention, Experiment 1 and Experiment 2.
(§3) Briefly, yeast cells carrying plasmids with the RTK of interest were grown in glucose containing medium (repressing expression). The cultures were diluted into galactose containing medium, which induces the expression of the kinase. Expression of the kinase inhibits growth of the yeast cells, which allows for positive selection of kinase inhibitors restoring growth of cells. Compounds were titrated at 7 concentrations between 0.2 and 100 μM.
(§4) Specificity profiling of compounds, using the yeast growth assay method described above. “−” indicates no growth restoration i.e. no activity against the particular kinase, “+”, “++”, and “+++” indicate activity detected by restoration of growth, classified into three categories of potency according to the maximal level of growth restoration reached and the concentration at which the maximal growth restoration is reached.

IGF-1R = molecular target: T2, IGF-1R (Homo sapiens, UniProt P08069)
T2 construct: expressed in transfected cells; host or cells: yeast
T2 sequence (P08069 31-1367): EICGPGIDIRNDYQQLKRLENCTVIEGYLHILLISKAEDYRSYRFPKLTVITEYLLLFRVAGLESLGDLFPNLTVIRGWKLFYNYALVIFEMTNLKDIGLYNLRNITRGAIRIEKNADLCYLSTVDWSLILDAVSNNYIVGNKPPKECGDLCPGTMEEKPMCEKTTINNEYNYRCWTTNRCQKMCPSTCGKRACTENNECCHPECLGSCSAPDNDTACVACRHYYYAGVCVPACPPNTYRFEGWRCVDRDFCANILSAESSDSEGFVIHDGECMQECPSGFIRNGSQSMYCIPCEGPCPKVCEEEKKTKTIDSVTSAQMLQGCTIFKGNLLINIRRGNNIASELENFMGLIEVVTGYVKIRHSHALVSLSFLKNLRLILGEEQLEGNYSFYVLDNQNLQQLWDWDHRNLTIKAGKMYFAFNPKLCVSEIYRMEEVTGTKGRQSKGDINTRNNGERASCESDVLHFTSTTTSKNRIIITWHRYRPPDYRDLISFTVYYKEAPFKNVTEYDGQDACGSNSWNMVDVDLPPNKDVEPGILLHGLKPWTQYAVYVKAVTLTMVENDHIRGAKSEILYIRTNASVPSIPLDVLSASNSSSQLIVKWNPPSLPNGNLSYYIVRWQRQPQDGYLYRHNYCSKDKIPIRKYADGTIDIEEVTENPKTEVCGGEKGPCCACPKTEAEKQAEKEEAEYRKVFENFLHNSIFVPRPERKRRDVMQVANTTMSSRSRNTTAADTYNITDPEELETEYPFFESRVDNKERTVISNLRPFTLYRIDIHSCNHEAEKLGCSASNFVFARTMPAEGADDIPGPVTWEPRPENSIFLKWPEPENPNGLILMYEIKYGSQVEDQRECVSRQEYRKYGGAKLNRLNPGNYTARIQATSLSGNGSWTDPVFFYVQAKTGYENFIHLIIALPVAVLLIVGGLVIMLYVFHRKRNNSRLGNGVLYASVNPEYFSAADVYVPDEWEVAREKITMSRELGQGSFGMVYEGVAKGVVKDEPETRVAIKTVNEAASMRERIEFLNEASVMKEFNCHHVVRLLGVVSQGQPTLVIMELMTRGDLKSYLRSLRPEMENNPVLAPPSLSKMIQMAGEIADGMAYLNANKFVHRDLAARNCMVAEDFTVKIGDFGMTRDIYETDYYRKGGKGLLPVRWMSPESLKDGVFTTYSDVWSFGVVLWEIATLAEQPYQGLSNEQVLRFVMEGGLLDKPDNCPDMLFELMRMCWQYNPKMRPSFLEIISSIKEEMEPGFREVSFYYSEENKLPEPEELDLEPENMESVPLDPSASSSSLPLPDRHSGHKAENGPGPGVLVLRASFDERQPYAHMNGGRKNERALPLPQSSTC
Experimental: as §1, §2, §3, §4

InsR = molecular target: T3, InsR (Homo sapiens, UniProt P06213)
T3 construct: expressed in transfected cells; host or cells: yeast
T3 sequence (P06213 28-1382): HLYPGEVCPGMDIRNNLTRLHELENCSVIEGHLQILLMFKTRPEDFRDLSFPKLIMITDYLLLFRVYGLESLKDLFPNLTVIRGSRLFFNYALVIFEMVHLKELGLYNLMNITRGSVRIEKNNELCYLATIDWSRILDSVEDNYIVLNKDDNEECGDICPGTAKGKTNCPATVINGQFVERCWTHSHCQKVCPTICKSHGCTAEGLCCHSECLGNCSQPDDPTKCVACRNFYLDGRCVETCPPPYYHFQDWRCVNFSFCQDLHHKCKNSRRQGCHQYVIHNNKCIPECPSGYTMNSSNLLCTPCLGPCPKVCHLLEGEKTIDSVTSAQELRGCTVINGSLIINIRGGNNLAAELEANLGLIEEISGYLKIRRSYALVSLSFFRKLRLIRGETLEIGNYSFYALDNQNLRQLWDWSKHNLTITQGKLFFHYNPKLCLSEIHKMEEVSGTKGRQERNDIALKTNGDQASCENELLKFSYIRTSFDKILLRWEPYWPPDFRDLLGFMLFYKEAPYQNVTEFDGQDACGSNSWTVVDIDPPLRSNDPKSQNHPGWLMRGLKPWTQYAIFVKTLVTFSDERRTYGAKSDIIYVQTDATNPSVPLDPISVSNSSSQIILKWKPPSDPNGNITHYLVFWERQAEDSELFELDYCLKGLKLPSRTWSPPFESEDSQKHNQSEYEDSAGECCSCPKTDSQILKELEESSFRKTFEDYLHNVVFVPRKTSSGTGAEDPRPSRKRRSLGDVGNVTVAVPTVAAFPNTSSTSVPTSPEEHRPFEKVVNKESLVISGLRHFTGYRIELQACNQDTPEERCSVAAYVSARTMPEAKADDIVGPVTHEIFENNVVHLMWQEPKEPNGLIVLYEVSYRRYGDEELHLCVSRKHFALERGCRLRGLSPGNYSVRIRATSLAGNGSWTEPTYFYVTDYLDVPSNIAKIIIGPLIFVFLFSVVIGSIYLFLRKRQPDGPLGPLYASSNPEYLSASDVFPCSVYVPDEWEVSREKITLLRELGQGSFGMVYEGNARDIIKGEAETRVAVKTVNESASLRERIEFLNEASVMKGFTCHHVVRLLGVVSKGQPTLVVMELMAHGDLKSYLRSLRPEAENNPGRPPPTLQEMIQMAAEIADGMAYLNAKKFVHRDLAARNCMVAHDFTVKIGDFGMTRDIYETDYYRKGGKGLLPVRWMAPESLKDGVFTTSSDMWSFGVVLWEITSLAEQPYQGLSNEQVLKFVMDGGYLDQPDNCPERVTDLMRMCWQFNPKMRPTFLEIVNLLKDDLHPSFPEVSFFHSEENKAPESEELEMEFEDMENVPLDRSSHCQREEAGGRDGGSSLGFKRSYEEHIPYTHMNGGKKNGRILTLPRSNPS
Experimental: as §1, §2, §3, §4

RET = molecular target: T4, RET (Homo sapiens, UniProt P07949)
T4 construct: expressed in transfected cells; host or cells: yeast
T4 sequence (P07949 29-1114): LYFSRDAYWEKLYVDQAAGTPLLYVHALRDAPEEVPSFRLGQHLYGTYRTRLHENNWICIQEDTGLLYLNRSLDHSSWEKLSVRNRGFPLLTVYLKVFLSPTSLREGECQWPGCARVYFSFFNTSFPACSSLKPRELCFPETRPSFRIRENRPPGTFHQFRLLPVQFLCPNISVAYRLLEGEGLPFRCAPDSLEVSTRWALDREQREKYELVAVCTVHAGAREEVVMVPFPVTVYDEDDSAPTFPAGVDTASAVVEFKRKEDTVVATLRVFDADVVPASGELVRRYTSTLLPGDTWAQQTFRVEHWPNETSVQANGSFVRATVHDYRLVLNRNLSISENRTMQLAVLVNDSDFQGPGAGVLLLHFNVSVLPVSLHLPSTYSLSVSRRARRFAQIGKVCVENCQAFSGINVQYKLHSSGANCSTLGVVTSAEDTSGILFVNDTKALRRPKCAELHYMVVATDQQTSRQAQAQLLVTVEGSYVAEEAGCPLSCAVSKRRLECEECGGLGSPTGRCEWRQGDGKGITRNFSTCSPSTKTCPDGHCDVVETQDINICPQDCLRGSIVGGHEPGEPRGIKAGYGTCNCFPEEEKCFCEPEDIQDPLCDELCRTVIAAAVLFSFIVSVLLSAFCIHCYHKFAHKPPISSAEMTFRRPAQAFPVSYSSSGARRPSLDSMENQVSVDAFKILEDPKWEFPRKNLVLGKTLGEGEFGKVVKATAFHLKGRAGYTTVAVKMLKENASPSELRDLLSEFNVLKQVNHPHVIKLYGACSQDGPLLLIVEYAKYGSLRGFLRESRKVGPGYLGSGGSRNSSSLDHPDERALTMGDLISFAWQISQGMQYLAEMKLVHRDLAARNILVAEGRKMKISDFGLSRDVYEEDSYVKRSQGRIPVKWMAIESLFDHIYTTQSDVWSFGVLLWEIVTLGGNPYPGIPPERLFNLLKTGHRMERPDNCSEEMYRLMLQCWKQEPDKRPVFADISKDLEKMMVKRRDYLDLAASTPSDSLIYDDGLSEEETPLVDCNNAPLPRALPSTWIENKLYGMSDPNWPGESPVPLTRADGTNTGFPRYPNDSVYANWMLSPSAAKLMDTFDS
Experimental: as §1, §2, §3, §4

VEGFR2 = molecular target: T5, VEGFR2 (Homo sapiens, UniProt P35968)
T5 construct: expressed in transfected cells; host or cells: yeast
T5 sequence (P35968 20-1356): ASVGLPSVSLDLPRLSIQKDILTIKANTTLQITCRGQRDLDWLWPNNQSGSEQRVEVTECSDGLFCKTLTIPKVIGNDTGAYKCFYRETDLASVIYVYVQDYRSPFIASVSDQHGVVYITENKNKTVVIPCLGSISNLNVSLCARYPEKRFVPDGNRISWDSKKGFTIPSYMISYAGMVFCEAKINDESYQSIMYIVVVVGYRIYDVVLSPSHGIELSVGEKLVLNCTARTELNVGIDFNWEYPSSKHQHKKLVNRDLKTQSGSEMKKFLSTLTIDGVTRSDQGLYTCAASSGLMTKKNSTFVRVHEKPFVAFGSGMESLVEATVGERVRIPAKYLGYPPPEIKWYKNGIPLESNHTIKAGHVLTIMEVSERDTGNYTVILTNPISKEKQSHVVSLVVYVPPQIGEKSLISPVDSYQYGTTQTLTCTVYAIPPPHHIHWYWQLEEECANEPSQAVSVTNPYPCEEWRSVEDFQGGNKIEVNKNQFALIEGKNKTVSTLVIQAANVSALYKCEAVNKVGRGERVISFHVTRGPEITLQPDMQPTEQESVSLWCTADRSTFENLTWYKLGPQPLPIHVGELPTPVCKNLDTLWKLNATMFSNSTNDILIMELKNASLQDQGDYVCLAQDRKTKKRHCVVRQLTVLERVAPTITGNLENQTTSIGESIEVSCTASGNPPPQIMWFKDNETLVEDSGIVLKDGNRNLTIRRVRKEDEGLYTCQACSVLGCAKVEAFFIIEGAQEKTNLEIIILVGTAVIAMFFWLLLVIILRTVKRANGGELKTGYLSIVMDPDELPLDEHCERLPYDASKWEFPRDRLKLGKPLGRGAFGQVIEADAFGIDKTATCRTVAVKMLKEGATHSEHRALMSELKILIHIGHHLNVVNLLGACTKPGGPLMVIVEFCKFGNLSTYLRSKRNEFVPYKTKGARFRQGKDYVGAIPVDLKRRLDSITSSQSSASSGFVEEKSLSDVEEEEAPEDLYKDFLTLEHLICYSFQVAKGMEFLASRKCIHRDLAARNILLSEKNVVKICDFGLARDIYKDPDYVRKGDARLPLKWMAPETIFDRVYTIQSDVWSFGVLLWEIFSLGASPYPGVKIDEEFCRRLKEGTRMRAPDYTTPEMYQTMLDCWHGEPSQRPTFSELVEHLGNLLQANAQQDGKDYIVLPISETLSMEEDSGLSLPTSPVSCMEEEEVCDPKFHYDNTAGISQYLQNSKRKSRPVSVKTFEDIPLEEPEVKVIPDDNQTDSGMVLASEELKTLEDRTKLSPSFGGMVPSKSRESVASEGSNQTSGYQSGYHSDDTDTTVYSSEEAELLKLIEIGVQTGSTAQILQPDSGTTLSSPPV
Experimental: as §1, §2, §3, §4

Row | Compound | EphB4 growth restoration (EphB4) | IGF-1R growth restoration (IGF-1R) | InsR growth restoration (InsR) | RET growth restoration (RET) | VEGFR2 growth restoration (VEGFR2)
1 | Nc1ccc(-c2nc3cnccn3c2Nc2cccc(Cl)c2)cc1 [compound 10, [2-(4-Amino-phenyl)-imidazo[1,2-a]pyrazin-3-yl]-(3-chloro-phenyl)-amine] | +++ | − | − | − | −
2 | Cc1nccn2c(Nc3cccc(Cl)c3)c(-c3ccccc3)nc12 [compound 3, (3-Chloro-phenyl)-(8-methyl-2-phenyl-imidazo[1,2-a]pyrazin-3-yl)-amine] | ++ | − | − | − | −
3 | CC(C)c1nc2cnccn2c1Nc1cccc(Cl)c1 [compound 12, (3-Chloro-phenyl)-(2-isopropyl-imidazo[1,2-a]pyrazin-3-yl)-amine] | + | − | − | − | −
